# Experimental data published in PubChem BioAssay AID1259407 (Chemical Carcinogenesis Research Information System (CCRIS), 2018).
# Active and inactive are the calls of the source. How the calls were made is not given here.
# Test system: CCRIS mutagenicity, Ames/micronucleus/aberration tests
# Assay: CCRIS mutagenicity studies
# [1] = Test System: AMES SALMONELLA TYPHIMURIUM, Strain/Indicator: TA98, Metabolic Activation: NONE, Method: STANDARD PLATE
# [2] = Test System: AMES SALMONELLA TYPHIMURIUM, Strain/Indicator: TA100, Metabolic Activation: NONE, Method: STANDARD PLATE
# [3] = Test System: AMES SALMONELLA TYPHIMURIUM, Strain/Indicator: TA1535, Metabolic Activation: NONE, Method: STANDARD PLATE
# [4] = Test System: AMES SALMONELLA TYPHIMURIUM, Strain/Indicator: TA1537, Metabolic Activation: NONE, Method: STANDARD PLATE
# [5] = Test System: AMES SALMONELLA TYPHIMURIUM, Strain/Indicator: TA1538, Metabolic Activation: NONE, Method: STANDARD PLATE
# [6] = Test System: MOUSE LYMPHOMA, Strain/Indicator: L5178Y (TK+/TK-), Metabolic Activation: NONE, Method: SUSPENSION/PLATE
# [7] = Test System: MOUSE LYMPHOMA, Strain/Indicator: L5178Y (TK+/TK-), Metabolic Activation: RAT, LIVER, S-9, AROCLOR 1254, Method: SUSPENSION/PLATE
smiles,measurement,setting,value
O=C1c2ccc3nc(-c4ccccc4)sc3c2C(=O)c2ccc3nc(-c4ccccc4)sc3c21,mutagenic call,"Test System: AMES SALMONELLA TYPHIMURIUM, Strain/Indicator: TA98, Metabolic Activation: HAMSTER, LIVER, S-9, AROCLOR 1254 (10%), Method: STANDARD PLATE",inactive; negative
same,mutagenic call,[1],inactive; negative
same,mutagenic call,"Test System: AMES SALMONELLA TYPHIMURIUM, Strain/Indicator: TA98, Metabolic Activation: RAT, LIVER, S-9, AROCLOR 1254 (10%), Method: STANDARD PLATE",inactive; negative
same,mutagenic call,"Test System: AMES SALMONELLA TYPHIMURIUM, Strain/Indicator: TA100, Metabolic Activation: HAMSTER, LIVER, S-9, AROCLOR 1254 (10%), Method: STANDARD PLATE",inactive; negative
same,mutagenic call,[2],inactive; negative
same,mutagenic call,"Test System: AMES SALMONELLA TYPHIMURIUM, Strain/Indicator: TA100, Metabolic Activation: RAT, LIVER, S-9, AROCLOR 1254 (10%), Method: STANDARD PLATE",inactive; negative
same,mutagenic call,"Test System: AMES SALMONELLA TYPHIMURIUM, Strain/Indicator: TA1535, Metabolic Activation: HAMSTER, LIVER, S-9, AROCLOR 1254 (10%), Method: STANDARD PLATE",inactive; negative
same,mutagenic call,[3],inactive; negative
same,mutagenic call,"Test System: AMES SALMONELLA TYPHIMURIUM, Strain/Indicator: TA1535, Metabolic Activation: RAT, LIVER, S-9, AROCLOR 1254 (10%), Method: STANDARD PLATE",inactive; negative
same,mutagenic call,"Test System: AMES SALMONELLA TYPHIMURIUM, Strain/Indicator: TA1537, Metabolic Activation: HAMSTER, LIVER, S-9, AROCLOR 1254 (10%), Method: STANDARD PLATE",inactive; negative
same,mutagenic call,[4],inactive; negative
same,mutagenic call,"Test System: AMES SALMONELLA TYPHIMURIUM, Strain/Indicator: TA1537, Metabolic Activation: RAT, LIVER, S-9, AROCLOR 1254 (10%), Method: STANDARD PLATE",inactive; negative
same,mutagenic call,"Test System: AMES SALMONELLA TYPHIMURIUM, Strain/Indicator: TA1538, Metabolic Activation: HAMSTER, LIVER, S-9, AROCLOR 1254 (10%), Method: STANDARD PLATE",inactive; negative
same,mutagenic call,[5],inactive; negative
same,mutagenic call,"Test System: AMES SALMONELLA TYPHIMURIUM, Strain/Indicator: TA1538, Metabolic Activation: RAT, LIVER, S-9, AROCLOR 1254 (10%), Method: STANDARD PLATE",inactive; negative
same,mutagenic call,[6],inactive; negative
same,mutagenic call,[7],active; positive
O=C(Nc1cc(Cl)cc(Cl)c1O)c1c(O)c(Cl)cc(Cl)c1Cl,mutagenic call,[1],inactive; negative
same,mutagenic call,"Test System: AMES SALMONELLA TYPHIMURIUM, Strain/Indicator: TA98, Metabolic Activation: RAT, LIVER, S-9, KANECHLOR 400, Method: STANDARD PLATE",inactive; negative
same,mutagenic call,[2],inactive; negative
same,mutagenic call,"Test System: AMES SALMONELLA TYPHIMURIUM, Strain/Indicator: TA100, Metabolic Activation: RAT, LIVER, S-9, KANECHLOR 400, Method: STANDARD PLATE",inactive; negative
same,mutagenic call,[3],inactive; negative
same,mutagenic call,"Test System: AMES SALMONELLA TYPHIMURIUM, Strain/Indicator: TA1535, Metabolic Activation: RAT, LIVER, S-9, KANECHLOR 400, Method: STANDARD PLATE",inactive; negative
same,mutagenic call,[4],inactive; negative
same,mutagenic call,"Test System: AMES SALMONELLA TYPHIMURIUM, Strain/Indicator: TA1537, Metabolic Activation: RAT, LIVER, S-9, KANECHLOR 400, Method: STANDARD PLATE",inactive; negative
same,mutagenic call,[5],inactive; negative
same,mutagenic call,"Test System: AMES SALMONELLA TYPHIMURIUM, Strain/Indicator: TA1538, Metabolic Activation: RAT, LIVER, S-9, KANECHLOR 400, Method: STANDARD PLATE",inactive; negative
COc1ccc2nc(N)sc2c1,mutagenic call,"Test System: AMES SALMONELLA TYPHIMURIUM, Strain/Indicator: TA98, Metabolic Activation: HAMSTER, LIVER, S-9, AROCLOR 1254, Method: STANDARD PLATE",active; positive
same,mutagenic call,[1],active; positive
same,mutagenic call,"Test System: AMES SALMONELLA TYPHIMURIUM, Strain/Indicator: TA98, Metabolic Activation: RAT, LIVER, S-9, AROCLOR 1254, Method: STANDARD PLATE",active; positive
same,mutagenic call,"Test System: AMES SALMONELLA TYPHIMURIUM, Strain/Indicator: TA100, Metabolic Activation: HAMSTER, LIVER, S-9, AROCLOR 1254, Method: STANDARD PLATE",active; positive
same,mutagenic call,[2],inactive; negative
same,mutagenic call,"Test System: AMES SALMONELLA TYPHIMURIUM, Strain/Indicator: TA100, Metabolic Activation: RAT, LIVER, S-9, AROCLOR 1254, Method: STANDARD PLATE",active; positive
same,mutagenic call,"Test System: AMES SALMONELLA TYPHIMURIUM, Strain/Indicator: TA1535, Metabolic Activation: HAMSTER, LIVER, S-9, AROCLOR 1254, Method: STANDARD PLATE",active; positive
same,mutagenic call,[3],inactive; negative
same,mutagenic call,"Test System: AMES SALMONELLA TYPHIMURIUM, Strain/Indicator: TA1535, Metabolic Activation: RAT, LIVER, S-9, AROCLOR 1254, Method: STANDARD PLATE",active; positive
same,mutagenic call,"Test System: AMES SALMONELLA TYPHIMURIUM, Strain/Indicator: TA1537, Metabolic Activation: HAMSTER, LIVER, S-9, AROCLOR 1254, Method: STANDARD PLATE",active; positive
same,mutagenic call,[4],inactive; negative
same,mutagenic call,"Test System: AMES SALMONELLA TYPHIMURIUM, Strain/Indicator: TA1537, Metabolic Activation: RAT, LIVER, S-9, AROCLOR 1254, Method: STANDARD PLATE",active; positive
same,mutagenic call,"Test System: AMES SALMONELLA TYPHIMURIUM, Strain/Indicator: TA1538, Metabolic Activation: HAMSTER, LIVER, S-9, AROCLOR 1254, Method: STANDARD PLATE",active; positive
same,mutagenic call,[5],active; positive
same,mutagenic call,"Test System: AMES SALMONELLA TYPHIMURIUM, Strain/Indicator: TA1538, Metabolic Activation: RAT, LIVER, S-9, AROCLOR 1254, Method: STANDARD PLATE",active; positive
same,mutagenic call,[6],inactive; negative. reevaluation of results: negative
same,mutagenic call,[7],active; positive. reevaluation of results: positive
COC(=O)C1=CCCN(C)C1,mutagenic call,[1],inactive; negative
same,mutagenic call,"Test System: AMES SALMONELLA TYPHIMURIUM, Strain/Indicator: TA98, Metabolic Activation: RAT, LIVER, S-9, Method: STANDARD PLATE",inactive; negative
same,mutagenic call,[2],active; positive
same,mutagenic call,"Test System: AMES SALMONELLA TYPHIMURIUM, Strain/Indicator: TA100, Metabolic Activation: RAT, LIVER, S-9, Method: STANDARD PLATE",active; positive
Cc1cc(-c2ccc(N/N=C3/C(=O)c4c(N)cc(S(=O)(=O)O)cc4C=C3S(=O)(=O)O)c(C)c2)ccc1N/N=C1/C(=O)c2c(N)cc(S(=O)(=O)O)cc2C=C1S(=O)(=O)O,mutagenic call,"Test System: AMES SALMONELLA TYPHIMURIUM, Strain/Indicator: TA98, Metabolic Activation: HAMSTER, LIVER, S-9, Method: PREINCUBATION (PRIVAL METHOD)",active; positive
same,mutagenic call,"Test System: AMES SALMONELLA TYPHIMURIUM, Strain/Indicator: TA100, Metabolic Activation: HAMSTER, LIVER, S-9, Method: PREINCUBATION (PRIVAL METHOD)",active; positive
same,mutagenic call,[5],inactive; negative
same,mutagenic call,"Test System: Ames Salmonella typhimurium, Strain/Indicator: TA98, Metabolic Activation: Rat, Liver, S-9, Sodium phenobarbitone, Method: Preincubation","inactive; negative, test conducted under both aerobic and anaerobic conditions."
same,mutagenic call,"Test System: Ames Salmonella typhimurium, Strain/Indicator: TA1538, Metabolic Activation: Rat, Liver, S-9, Sodium phenobarbitone, Method: Preincubation","inactive; negative, test conducted under both aerobic and anaerobic conditions."
same,mutagenic call,"Test System: Mouse lymphoma, Strain/Indicator: L5178Y (tk+/tk-), Metabolic Activation: None, Method: Suspension/plate",inactive; negative
same,mutagenic call,"Test System: Mouse lymphoma, Strain/Indicator: L5178Y (tk+/tk-), Metabolic Activation: Rat, Liver, S-9, Aroclor 1254, Method: Suspension/plate",inactive; negative
c1cc2c3c(c1)C1NC1c1cccc(c1-3)C1NC21 (stereo unspecified),mutagenic call,[2],active; positive
